Measurements published in patent publication US20220280513A1, “ENHANCING THE ANTIVIRAL EFFICACY OF RNA VIRUS INHIBITION BY COMBINATION WITH MODULATORS OF PYRIMIDINE METABOLISM” (The Board of Trustees of the Leland Stanford Junior …, priority 2019, published 2022).
pEC50, pKi: −log10 of the molar value.

Legend:
[1] = tested on: intracellular uridine and cytidine nucleotide levels; experiment: LC-MS/MS analysis of intracellular nucleotides in A549 cells; assay type: cell-based; conditions: 250 μM with 1 μM GSK983, 5 μM uridine, 6 h
Method: FIG. 7. LC-MS analysis of intracellular nucleotides. (A) LC-MS analysis of intracellular uridine and cytidine nucleotide levels after 6 h treatments. In all assays, the culture medium was supplemented with 5 μM uridine and 1 μM GSK983. Error bars represent ±S.D. of two replicates. (B) LC-MS detection of mono-, di- and tri-phosphates of CPU and 5-F-CPU in cells. LC-MS/MS was performed on an Agilent 1290 infinity II LC system tandem with 6370 triple quad mass spectrometer using ion pairing chromatography. LC separation was performed at 40° C. with a solvent flow rate of 0.25 mL/min on a Zorbax RRHD Extended-C18 column (2.1×150 mm, 1.8 μM). Buffer A contained 97% H2O, 3% MeOH, 5 mM tributylamine, 5.5 mM Acetic acid and 1 μM medronic acid with pH=5.0; Buffer B contains ca. 100% MeOH, 5 mM tributylamine, 5.5 mM Acetic acid and 5 μM medronic acid with pH=7.0 The initial mobile phase composition was 100% solvent A, and a constant or linear gradient was applied after sample injection with eluent B varying as follows: 0% at 2.5 min, 20% at 7.5 min, 45% at 14 min, 99% at 20 to 23 min, and 0% from 23.1 to 27.1 min. […] Samples were measured in the negative ESI mode with capillary voltage at −3.5 kV. […]
With optimized sampling and detection method in hand, pyrimidine nucleotide levels were measured in cells cultured with either 250 μM CPU, 5-F-CPU or 5′-F-CPU in combination with 1 μM GSK983 (FIG. 7A). […]

recombinant human UCK2 = target: T1, recombinant human UCK2 (Homo sapiens, UniProt Q9BZX2); experiment: In vitro enzyme activity assay with recombinant human UCK2 (PK/LDH-coupled, UV 340 nm); assay type: biochemical
T1 construct: 6xHis (C); made in house; host or cells: E. coli BL21(DE3)
T1 sequence (Q9BZX2 1-261): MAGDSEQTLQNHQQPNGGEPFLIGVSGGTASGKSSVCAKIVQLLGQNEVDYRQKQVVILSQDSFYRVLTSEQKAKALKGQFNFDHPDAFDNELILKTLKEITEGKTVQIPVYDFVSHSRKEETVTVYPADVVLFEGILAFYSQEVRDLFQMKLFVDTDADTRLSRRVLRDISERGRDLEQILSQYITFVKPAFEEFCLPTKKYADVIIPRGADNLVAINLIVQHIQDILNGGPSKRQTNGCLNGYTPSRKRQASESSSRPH
Excerpt: In order to guide our SAR studies, we developed an enzymatic assay to evaluate the inhibitory effect of each CPU analog against recombinant human UCK2, which was expressed and purified in E. coli. A continuous assay system was optimized by coupling UCK2 activity to the pyruvate kinase (PK) reaction, which in turn was coupled to lactate dehydrogenase (LDH). Overall reaction progress was continuously monitored by detecting the UV absorption change at 340 nm, which was correlated with the ATP consumption by UCK2. The effect of 250 μM of each CPU analog on UCK2 activity was evaluated in the presence of 50 μM uridine. […] We then individually measured the steady state kinetic parameters of UCK2 using uridine, CPU and 5-F-CPU as substrates. Their KM values were 86, 25, and 41 μM, and their kcat/KM values were 2.6×10^5, 1.5×10^5, and 7.3×10^4 s^−1 M^−1 (FIG. 5B).
Cloning, expression and purification of recombinant human UCK2 and CMPK1: Uridine cytidine kinase 2 (UCK2) was cloned into the pET-21a(+) vector using Ndel and Notl as restriction sites. […] The resulting plasmid was transformed into E. coli BL21(DE3) cells by electroporation, recovered in SOC at 37° C. for 1 h and plated onto LB agar plates with kanamycin overnight at 37° C. A single, isolated colony was inoculated into 30 mL LB supplemented with 50 μg/mL kanamycin and grown at 37° C. with shaking for 15 h. The next day, these cells were used to inoculate 1 L autoclaved LB with 50 μg/mL kanamycin. The flask was shaken at 37° C. When an optical density (OD600) of 0.7 was reached, protein expression was induced with 0.5 mM isopropyl β-D-1-thiogalactopyranoside (IPTG). The temperature was changed to 18° C. and flasks were shaken for an additional 15 h. The cell pellets were collected by spinning the media at 5000 rpm for 10 min. The pellets obtained were frozen by liquid nitrogen and stored in −80° C. for protein purification. Cell pellets were thawed and resuspended in lysis buffer containing Tris (40 mM, pH 7.5), NaCl (10 mM), imidazole (10 mM), DTT (1 mM). Cells were lysed by sonication and centrifuged at 25,000 g for 1 h. The supernatant was incubated with a slurry of Ni-NTA resin for 1 h at 4° C. and loaded onto a column. The nickel column wash buffer was Tris (40 mM, pH 7.5), NaCl (10 mM), DTT (1 mM) and each wash step contained increasing concentrations of imidazole (10, 50, or 250 mM). After SDS-PAGE confirmation of the protein fractions, protein was further purified using fast protein liquid chromatography (FPLC) using buffer A (50 mM Tris-HCl pH 8, 1 mM dithiothreitol (DTT), 10% glycerol) and elution buffer B (50 mM Tris-HCl pH 8, 1mM dithiothreitol (DTT), 10% glycerol with 500 mM NaCl) with changing gradient over a 20 minute from 2% to 100% Buffer B. FPLC eluents containing the protein was concentrated using Am icon centrifugal filter with 3K cut-off and the enzyme was stored in storage buffer (50 mM Tris-HCl pH 7.5, 10% glycerol). Human cytidine monophosphate kinase 1 (CMPK1) was purified as previously described (Deans et al., 2016).
In vitro enzyme activity assays with recombinant human UCK2: To continuously monitor reaction progress spectrophotometrically, ATP hydrolysis was coupled to NADH oxidation via pyruvate kinase (PK) and lactate dehydrogenase (LDH). Reactions were conducted at room temperature in 100 μL in 96-well plates (Greiner Bio-One, UV-Star, Half Area). Mixtures contained 20 mM HEPES (pH 7.2), 100 mM KCl, 2 mM MgCl2, 300 μM ATP, 0-500 μM uridine, 0-500 μM CPU analogs, 10 nM UCK2, 1 mM phosphoenolpyruvate, 500 μM NADH and 20 units/mL of PK and LDH. Progress was monitored in the linear region using a Biotek Synergy HT and kinetic and inhibition constants were determined using GraphPad Prism 7 (GraphPad Software).

DENV-2 virus [2] = experiment: Pilot antiviral assay, DENV-Luc replication in A549 cells (FIG. 2); assay type: cell-based, dengue serotype 2 (DENV-2) strain 16681; conditions: alone, 20 μM exogenous uridine
Method: We therefore focused our efforts on evaluating CPU in combination with GSK983. Using an infectious clone of dengue serotype 2 (DENV-2) strain 16681 engineered to express a luciferase reporter, the efficacy and cytotoxicity of combinations of GSK983 and CPU were assessed in infected or uninfected cultures of the A549 lung carcinoma cell line (FIG. 2). […] However, a combination of 0.2 μM GSK and 250 μM CPU inhibited ca. 50% of virus replication.
(§1) DENV-Luc reporter virus generation: The design of the pDENV-Luc infectious clone derived from dengue serotype 2 (DENV-2) strain 16681 was described in detail by Marceau et al (Marceau et al., 2016). The plasmid was linearized with Xbal and in vitro transcribed into the genomic RNA of DENV-Luc virus using the T7 Megascript Kit (Ambion) in the presence of m7G(5′)ppp(5′)G RNA Cap Structure Analog (NEB). 5 μg DENV-Luc RNA was electroporated into 2×10^6 Vero cells. The transfected cells were resuspended with Dulbecco's modified Eagle's medium (DMEM; Invitrogen) with 10% FBS and 100 U/ml penicillin-streptomycin and transferred into a T-175 flask incubated at 37° C. with 5% CO2. Supernatants were collected and replenished with fresh medium every 24 h from day 17 to 24 post-transfection, pooled together, clarified by centrifugation and stored in aliquots at −80° C. The amount of infectious DENV-Luc virus in the stock was titrated using the TCID50 assay and calculated by the Spearman & Kärber algorithm as described previously (Hierholzer and Killington, 1996).
Pilot Antiviral Assays (for FIG. 2): A549 cells were plated overnight at 20,000 cells/well in 24-well plates in complete DMEM and incubated for 24 h at 37° C. Cell were then treated with pyrimidine de novo synthesis and/or salvage inhibitors in DMEM supplemented with 20 μM uridine. Four hours after drug addition, cells were infected with DENV-2 virus at a MOI=0.01. After 48 h, DENV-Luc replication was monitored by the production of Renilla luciferase, which was measured using the Renilla-Glo Luciferase Assay System (Promega) according to the specifications of the manufacturer. For the accompanying cell viability assay, A549 cells were seeded into 24-well plates at a density of 20,000 cells/well incubated for 24 h at 37° C. Cell were then treated with pyrimidine de novo synthesis and/or salvage inhibitors in DMEM supplemented with 20 μM uridine. Following 48h treatment, cells were harvested, and the density of viable cells was determined by flow cytometry (FSC/SSC) using a BD Accuri C6 Flow Cytometer.

[3] = tested on: a variety of unrelated viruses; conditions: Harvey et al. (2009); read-out: EC50, replication of a variety of unrelated viruses in vitro; cited from earlier work
DENV-2 virus [4] = experiment: DENV antiviral assay, DENV-Luc replication in A549 cells (FIGS. 8 and 9); assay type: cell-based, dengue serotype 2 (DENV-2) strain 16681; conditions: single agents, 20 μM uridine
Method: as §1
DENV antiviral assays (For FIGS. 8 and 9): A549 cells were plated overnight at 5,000 cells/well in 96-well plates in complete DMEM and incubated for 24 h at 37° C. Cells were then treated with pyrimidine de novo synthesis inhibitors, and/or salvage inhibitors, and/or R1479 in DMEM supplemented with 20 μM uridine. Four hours after drug addition, cells were infected with DENV-2 virus at a MOI=0.1. After 72 h, DENV-Luc replication was monitored by the production of Renilla luciferase, which was measured using the Renilla-Glo Luciferase Assay System (Promega) according to the specifications of the manufacturer. For the accompanying cell viability assay, A549 cells were seeded at 5,000 cells/well in 96-well plates in complete DMEM and incubated for 24 h at 37° C. Cell were then treated with pyrimidine de novo synthesis inhibitors, and/or salvage inhibitors, and/or R1479 in DMEM supplemented with 20 μM uridine. Following 48 h treatment, cell viability was monitored by ATP levels, which was measured using the CellTiter-Glo Luciferase Assay System (Promega) according to the specifications of the manufacturer.

SMILES	depletion of intracellular uridine and cytidine nucleotide levels [1]	UCK2 substrate or not (ATP consumption) (recombinant human UCK2; 250 μM analog in the presence of 50 μM uridine)	pKi (recombinant human UCK2; competitive inhibitors of UCK2, Lineweaver-Burk analysis)	inhibition of replication of DENV-2 virus, single agent (DENV-2 virus [2])	pEC50 [3]	antiviral activity as single agent (DENV-2 virus [4])
O=c1ccn([C@@H]2C=C(CF)[C@@H](O)[C@H]2O)c(=O)[nH]1 [5′-F-CPU, 1-((1R,4R,5S)-3-(fluoromethyl)-4,5-dihydroxycyclopent-2-en-1-yl)pyrimidine-2,4(1H,3H)-dione]	did not deplete	inhibitors but not substrates	3.77	–	–	–
O=C(N[C@@H]1CCCc2c1[nH]c1ccc(Cl)cc21)c1ccccn1 [GSK983]	–	–	–	neither GSK nor CPU alone inhibited replication	7.70 to 8.30	neither GSK983 nor CPU were effective
